This note sets out measurements from PubChem BioAssay (NCI).

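Cultured in 96-well plates, cells were exposed to test compound for 48 hours across five concentrations. GI50 marks 50% less growth. TGI: total growth inhibition.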

Common to all, as to assay: growth of human tumour cells (NCI), 48 h
In test [1] the test system is CAKI-1 renal.
For test [2], the system named is HCC-2998 colon.
Test [3] deals with HT29 colon.
Test [4] has as its system IGROV1 ovarian.
The subject of test [5] is M14 melanoma.
For test [6], the system named is MALME-3M melanoma.
In test [7] the test system is NCI-H522 lung.
Test [8] has as its system SK-OV-3 ovarian.
Test [9] concerns SW-620 colon.
The test system of test [10] is TK-10 renal.

With `C1CN(SSN2CCOCC2)CCO1`, the GI50 in test [1] was 33.7 µM; in test [2], more than 100 µM; in test [3], 19.9 µM; in test [4] it was 70.7 µM; in test [5], 20.6 µM; in [6], 53.6 µM. For the same molecule, the GI50 in test [7] was 22.2 µM; in [8] it was more than 100 µM; in test [9], 19.4 µM; in test [10], more than 100 µM. The TGI in test [1] was more than 100 µM; in test [2] it was more than 100 µM; in test [3] it was 43.1 µM; in [4], more than 100 µM; in test [5], 48.9 µM; in [6] it was more than 100 µM. Besides, the TGI was 64.8 µM in [7], more than 100 µM in test [8], 42 µM in test [9] and more than 100 µM in test [10].
With `O=C(NN1C(=O)CSC12CCCC2)c1[nH]c2ccc(Br)cc2c1-c1ccccc1`, the GI50 in test [1] is 32.8 µM; in test [2] it was 44.6 µM; in test [3] it was 30.7 µM; in test [4], 21.8 µM; in test [5] it was 49.1 µM; in test [6] it was 38.3 µM. Further, the GI50 is 30.4 µM in test [7], more than 100 µM in test [8], 74.6 µM in [9] and 80.9 µM in test [10]. Also, the TGI in [1], in test [2], in test [3], in [4], in test [5] and in test [6] was more than 100 µM throughout. For the same molecule, the TGI in [7], in test [8], in [9] and in [10] was more than 100 µM each time.
Regarding `COc1cc(/C=C2\Sc3scc(-c4cccc([N+](=O)[O-])c4)[n+]3C2=O)cc(OC)c1OC`, the TGI in [1] was determined as 17.8 µM; in test [2], 27.5 µM; in [3], 41.2 µM; in test [4] it was 29.4 µM; in [5], 23.9 µM; in test [6], 28.4 µM. The TGI in test [7] amounted to 27.3 µM; in [8] it was 59.9 µM; in [9] it was 23 µM; in test [10] it was 22.6 µM.
For `COc1c(Cl)cc(NC(=S)C#N)cc1Cl`, the TGI is 58.4 µM in test [1]; 32.6 µM in test [2]; more than 65.8 µM in test [3]; more than 82.6 µM in test [4]; 64.4 µM in [5]; 59.6 µM in [6]. Moreover, the TGI in [7] was 52.8 µM; in test [8], more than 74.7 µM; in [9] it was more than 100 µM; in [10] it was more than 100 µM.
Turning to `C/C=C(\C)C(=O)O[C@H]1C=CC(=O)O[C@@H]1CC[C@H](O)[C@H](C)O`, the GI50 in test [1] is 27.3 µM; in test [2], 64.6 µM; in test [3], 30.6 µM; in test [4], 42 µM; in test [5], 34 µM; in test [6] it was 29.3 µM. For the same molecule, the GI50 is 18 µM in test [7], more than 100 µM in test [8], 24 µM in test [9] and 50.6 µM in test [10]. Further, the TGI is 68.4 µM in test [1]; more than 100 µM in [2]; 97.5 µM in test [3]; more than 100 µM in [4]; more than 100 µM in [5]; 70.6 µM in test [6]. Moreover, the TGI in test [7] was 43.4 µM; in [8], more than 100 µM; in [9] it was 57.6 µM; in test [10] it was more than 100 µM.
`COc1ccc2ccccc2c1C1OC(=O)c2ccccc21` (stereo not given): the TGI in test [1], in test [2], in test [3], in test [4], in test [5] and in test [6] was more than 100 µM in each case. Besides, the TGI in test [7], in test [8], in test [9] and in test [10] was more than 100 µM each time.
On to `COc1ccc(OC)c2c1C(=O)C1CC1(Br)C2=O` (stereo not given), for which the TGI in test [1], in [2], in test [3], in test [4], in test [5] and in [6] was more than 100 µM throughout. In addition, the TGI in test [7], in [8], in [9] and in [10] was more than 100 µM each time.
As for `C=C1C(=O)OC2C1C(OC(=O)/C(C)=C/C)CC(O)(CCl)C1C(O)C3OC3(C)C21O` (stereo not given), the TGI in [1] is more than 50 µM; in [2] it was more than 50 µM; in test [3] it was more than 50 µM; in [4] it was more than 50 µM; in test [5], more than 50 µM; in [6] it was 10.6 µM. The TGI in test [7] was 10.2 µM; in [8], more than 50 µM; in test [9] it was 34.1 µM; in test [10] it was more than 50 µM.
For the molecule `CN(/N=C/c1cccc2cccnc12)c1ccccc1`, the TGI in test [1], in [2], in [3], in test [4], in [5] and in [6] was more than 100 µM throughout. Besides, the TGI in [7], in [8], in test [9] and in test [10] was more than 100 µM each time.
For the molecule `O=c1nc2oc3ccc4ccccc4c3cc-2s1`, the GI50 is 1.16 µM in test [1]; more than 100 µM in test [2]; 18 µM in test [3]; 10.2 µM in test [4]; 1.09 µM in [5]; 0.743 µM in test [6]. Besides, the GI50 was 0.596 µM in test [7], 15.1 µM in test [8], 1.05 µM in test [9] and more than 25.4 µM in [10]. For the same molecule, the TGI in test [1], in test [2], in test [3], in [4], in test [5] and in [6] was more than 100 µM in each case. For the same molecule, the TGI in test [7], in [8], in test [9] and in test [10] was more than 100 µM in each case.
